Several values for one entry are separate records, joined by “and”; a condition that tells them apart may be missing. Equal values may be shown once.
Legend:
FIH [1] = molecular target: T1, FIH (Homo sapiens, UniProt Q9NWT6); assay: SPE-MS FIH inhibition assay; format: biochemical; conditions: source data of Table 3, single independent replicates
Method in brief: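 Compounds in an 11-point, about threefold series (top 100 μM, 0.5% DMSO) were preincubated 15 min at 20 °C with 0.3 μM His6-FIH enzyme mixture. They were then mixed with substrate mixture containing 10.0 μM HIF-1α788–822, 200 μM ascorbate, 20.0 μM 2OG and 20.0 μM Fe(II) in 50 mM Tris/50 mM NaCl pH 7.5. After 15 min, formic acid quench and SPE-MS gave % hydroxylation.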

FIH [2] = molecular target: T1, FIH; assay: Competition assay in a single reaction vessel, FIH-catalyzed hydroxylation (SPE-MS); format: biochemical
AspH = molecular target: T2, AspH (Homo sapiens, UniProt Q12797); parameters: method as in PMID 34163896; conditions: hFX-CP101–119 substrate, 330 μM 2OG or 2OG derivative, t = 15 min; cited from earlier work
T2 construct: the tetratricopeptide repeat domain (His6-AspH315-758), was produced and purified as previously reported; made in house
T2 sequence (Q12797 315-758): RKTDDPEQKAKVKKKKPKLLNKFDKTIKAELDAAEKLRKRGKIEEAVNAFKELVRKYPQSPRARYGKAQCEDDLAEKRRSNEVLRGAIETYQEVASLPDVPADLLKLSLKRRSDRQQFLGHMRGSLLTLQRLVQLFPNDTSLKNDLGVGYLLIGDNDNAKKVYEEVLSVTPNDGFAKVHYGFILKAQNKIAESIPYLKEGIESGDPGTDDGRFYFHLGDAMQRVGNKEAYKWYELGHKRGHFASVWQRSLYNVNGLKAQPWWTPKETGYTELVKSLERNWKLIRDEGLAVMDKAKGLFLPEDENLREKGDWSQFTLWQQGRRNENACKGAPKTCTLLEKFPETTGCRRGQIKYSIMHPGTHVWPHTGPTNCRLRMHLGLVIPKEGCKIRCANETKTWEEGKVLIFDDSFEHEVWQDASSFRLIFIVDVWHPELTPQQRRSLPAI

T1 sequence (Q9NWT6 whole entry): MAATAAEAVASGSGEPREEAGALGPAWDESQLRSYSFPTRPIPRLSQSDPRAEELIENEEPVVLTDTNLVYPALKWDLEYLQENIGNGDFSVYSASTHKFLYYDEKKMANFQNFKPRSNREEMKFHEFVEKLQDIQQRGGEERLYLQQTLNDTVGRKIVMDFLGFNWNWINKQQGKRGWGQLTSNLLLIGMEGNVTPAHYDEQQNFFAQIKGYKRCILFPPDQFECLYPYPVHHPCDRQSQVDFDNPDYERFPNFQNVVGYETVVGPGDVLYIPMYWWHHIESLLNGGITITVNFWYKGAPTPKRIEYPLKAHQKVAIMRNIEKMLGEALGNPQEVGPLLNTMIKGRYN

## CC(CC(=O)C(=O)O)C(=O)O (stereo not drawn) [compound 12, 4-methyl-2OG]
FIH [1]
  FIH IC50, independent replicate: not inhibiting
FIH [2]; Fig 2e, 20 μM 12 and 100 μM 2OG
  FIH-catalyzed CA1–20 conversion: ~ 90%
FIH [2]; Fig 2e, 20 μM 12 and 100 μM 2OG, FIH, 0 min
  substrate hydroxylation (% conversion): 15.3987 and 14.8576 and 13.209
FIH [2]; Fig 2e, 20 μM 12 and 100 μM 2OG, FIH, 0.237833 min
  substrate hydroxylation (% conversion): 27.0539 and 26.3778 and 23.9445
FIH [2]; Fig 2e, 20 μM 12 and 100 μM 2OG, FIH, 0.478833 min
  substrate hydroxylation (% conversion): 35.9286 and 35.8922 and 32.7293
FIH [2]; Fig 2e, 20 μM 12 and 100 μM 2OG, FIH, 0.717 min
  substrate hydroxylation (% conversion): 45.1159 and 43.9873 and 41.1347
FIH [2]; Fig 2e, 20 μM 12 and 100 μM 2OG, FIH, 0.956333 min
  substrate hydroxylation (% conversion): 51.8274
FIH [2]; Fig 2e, 20 μM 12 and 100 μM 2OG, FIH, 1.43767 min
  substrate hydroxylation (% conversion): 63.7405 and 62.295 and 59.0531
FIH [2]; Fig 2e, 20 μM 12 and 100 μM 2OG, FIH, 1.67667 min
  substrate hydroxylation (% conversion): 68.2711 and 66.7748 and 63.7338
FIH [2]; Fig 2e, 20 μM 12 and 100 μM 2OG, FIH, 1.918 min
  substrate hydroxylation (% conversion): 71.9325 and 70.2648 and 67.9993
FIH [2]; Fig 2e, 20 μM 12 and 100 μM 2OG, FIH, 2.15883 min
  substrate hydroxylation (% conversion): 75.384 and 73.508 and 70.5367
FIH [2]; Fig 2e, 20 μM 12 and 100 μM 2OG, FIH, 2.6405 min
  substrate hydroxylation (% conversion): 81.0929 and 78.2797 and 76.6153
FIH [2]; Fig 2e, 20 μM 12 and 100 μM 2OG, FIH, 2.88117 min
  substrate hydroxylation (% conversion): 82.6978 and 80.7392 and 78.6776
FIH [2]; Fig 2e, 20 μM 12 and 100 μM 2OG, FIH, 3.12267 min
  substrate hydroxylation (% conversion): 85.0838 and 82.5241 and 80.8532
FIH [2]; Fig 2e, 20 μM 12 and 100 μM 2OG, FIH, 3.36583 min
  substrate hydroxylation (% conversion): 85.9652 and 84.4207 and 82.727
FIH [2]; Fig 2e, 20 μM 12 and 100 μM 2OG, FIH, 3.60733 min
  substrate hydroxylation (% conversion): 87.7923 and 85.7936 and 83.2563
FIH [2]; Fig 2e, 20 μM 12 and 100 μM 2OG, FIH, 3.849 min
  substrate hydroxylation (% conversion): 88.932 and 84.1653 and 80.7905
FIH [2]; Fig 2d, 20 μM 12, FIH, 0 min
  substrate hydroxylation (% conversion): 8.164 and 7.161 and 7.808
FIH [2]; Fig 2d, 20 μM 12, FIH, 0.707167 min
  substrate hydroxylation (% conversion): 31.5759 and 26.6674 and 29.4313
FIH [2]; Fig 2d, 20 μM 12, FIH, 1.41317 min
  substrate hydroxylation (% conversion): 48.4989 and 42.8597 and 46.6007
FIH [2]; Fig 2d, 20 μM 12, FIH, 2.12133 min
  substrate hydroxylation (% conversion): 61.9239 and 55.8625 and 59.591
FIH [2]; Fig 2d, 20 μM 12, FIH, 2.822 min
  substrate hydroxylation (% conversion): 71.1548 and 65.8729 and 69.0603
FIH [2]; Fig 2d, 20 μM 12, FIH, 3.52117 min
  substrate hydroxylation (% conversion): 77.6139 and 72.8151 and 76.4316
FIH [2]; Fig 2d, 20 μM 12, FIH, 4.22083 min
  substrate hydroxylation (% conversion): 82.6095 and 78.8355 and 81.4405
FIH [2]; Fig 2d, 20 μM 12, FIH, 4.9205 min
  substrate hydroxylation (% conversion): 86.3253 and 83.0223 and 85.6621
FIH [2]; Fig 2d, 20 μM 12, FIH, 5.62167 min
  substrate hydroxylation (% conversion): 89.1149 and 86.1539 and 88.6579
FIH [2]; Fig 2d, 20 μM 12, FIH, 6.3215 min
  substrate hydroxylation (% conversion): 91.4092 and 88.7795 and 90.8352
FIH [2]; Fig 2d, 20 μM 12, FIH, 7.02117 min
  substrate hydroxylation (% conversion): 93.1171 and 89.921 and 92.1057
FIH [2]; Fig 2d, 20 μM 12, FIH, 7.724 min
  substrate hydroxylation (% conversion): 94.3469 and 91.6232 and 93.2231
FIH [2]; Fig 2d, 20 μM 12, FIH, 8.42383 min
  substrate hydroxylation (% conversion): 95.3806 and 92.9188 and 94.5877
FIH [2]; Fig 2d, 20 μM 12, FIH, 9.1255 min
  substrate hydroxylation (% conversion): 96.194 and 94.1363 and 95.5545
FIH [2]; Fig 2d, 20 μM 12, FIH, 9.83 min
  substrate hydroxylation (% conversion): 97.3851 and 94.9972 and 96.1755
FIH [2]; Fig 2d, 20 μM 12, FIH, 10.5315 min
  substrate hydroxylation (% conversion): 98.7917 and 94.9441 and 95.9828
FIH [2]; Fig 2d, 20 μM 12, after ~5 min
  FIH-catalyzed CA1–20 hydroxylation: ~ 90%
AspH
  AspH activity, %-substrate conversion: ~10%

## CC(CC(=O)O)C(=O)C(=O)O (stereo not drawn) [compound 1, 3-methyl-2OG]
FIH [1]
  FIH IC50, independent replicate: not inhibiting
FIH [2]; Fig 2c, 20 μM 1, FIH, 0 min
  substrate hydroxylation (% conversion): 3.506 and 4.816 and 5.633
FIH [2]; Fig 2c, 20 μM 1, FIH, 0.700167 min
  substrate hydroxylation (% conversion): 19.4856 and 18.7444 and 19.2793
FIH [2]; Fig 2c, 20 μM 1, FIH, 1.39933 min
  substrate hydroxylation (% conversion): 32.3038 and 30.8139 and 30.8824
FIH [2]; Fig 2c, 20 μM 1, FIH, 2.10017 min
  substrate hydroxylation (% conversion): 43.2797 and 40.6551 and 40.5787
FIH [2]; Fig 2c, 20 μM 1, FIH, 2.79917 min
  substrate hydroxylation (% conversion): 51.3082 and 49.0078 and 49.2389
FIH [2]; Fig 2c, 20 μM 1, FIH, 3.5005 min
  substrate hydroxylation (% conversion): 58.9995 and 56.3411 and 56.671
FIH [2]; Fig 2c, 20 μM 1, FIH, 4.20083 min
  substrate hydroxylation (% conversion): 64.1723 and 62.5798 and 63.2033
FIH [2]; Fig 2c, 20 μM 1, FIH, 4.9 min
  substrate hydroxylation (% conversion): 69.5252 and 67.0447 and 68.2025
FIH [2]; Fig 2c, 20 μM 1, FIH, 5.60117 min
  substrate hydroxylation (% conversion): 73.4042 and 71.6094 and 72.347
FIH [2]; Fig 2c, 20 μM 1, FIH, 6.29967 min
  substrate hydroxylation (% conversion): 77.1725 and 74.6235 and 74.9327
FIH [2]; Fig 2c, 20 μM 1, FIH, 7.00033 min
  substrate hydroxylation (% conversion): 79.731 and 76.5169 and 77.4955
FIH [2]; Fig 2c, 20 μM 1, FIH, 7.7025 min
  substrate hydroxylation (% conversion): 81.4904 and 79.3791 and 79.9762
FIH [2]; Fig 2c, 20 μM 1, FIH, 8.40233 min
  substrate hydroxylation (% conversion): 83.8334 and 81.9815 and 82.8865
FIH [2]; Fig 2c, 20 μM 1, FIH, 9.10283 min
  substrate hydroxylation (% conversion): 86.0072 and 84.3134 and 84.9864
FIH [2]; Fig 2c, 20 μM 1, FIH, 9.806 min
  substrate hydroxylation (% conversion): 87.2729 and 86.3042 and 86.5893
FIH [2]; Fig 2c, 20 μM 1, FIH, 11.207 min
  substrate hydroxylation (% conversion): 89.9552 and 84.6882 and 85.7483
FIH [2]; Fig 2c, 20 μM 1, after about 8 min
  FIH-catalyzed CA1–20 hydroxylation: > 80%
AspH
  AspH activity, %-substrate conversion: >95%

Reference: PMC8580996, “2-Oxoglutarate derivatives can selectively enhance or inhibit the activity of human oxygenases” (Nature Communications, 2021)
